Where two headings read alike, the source gives them in different places.
What was measured:
[1] = Stability in rat liver microsomes; assay type: in vitro ADME; conditions: rat liver microsomes 0.5 mg protein/mL, 1 μM test substance, β-NADPH 1 mM, 37° C.; for half-life at 1 μM: read-out: Rat t1/2
Experimental: (§1) Experimental Example 2: Evaluation of Stability of Compounds Disclosed Herein in Liver Microsomes
(§2) Composition of experimental incubation system:
(§3) An appropriate amount of the compound was precisely weighed out and dissolved in DMSO to prepare a 10.0 mM stock solution. The 10.0 mM stock solution was diluted with DMSO to 1.0 mM, and then diluted with phosphate buffer (containing 3 mM MgCl2) to prepare a 10 μM test substance working solution for later use (DMSO content in the reaction system: 0.1%).
(§4) An appropriate amount of β-NADPH was precisely weighed out and then prepared into a 5 mM β-NADPH working solution using phosphate buffer (containing 3 mM MgCl2) for later use.
(§5) (1) The liver microsomes (20 mg protein/mL) were taken out from a −80° C. freezer and pre-incubated on a 37° C. water bath thermostatic oscillator for 3 min to thaw for later use.
(§6) (2) A mixed solution of the incubation system (without β-NADPH) was prepared according to “composition of experimental incubation system” described above, and pre-incubated on a 37° C. water bath thermostatic oscillator for 2 min.
(§7) (3) Control group (without β-NADPH): 10 μL of phosphate buffer (containing 3 mM MgCl2) and 40 μL of the mixed solution of the incubation system in step (2) were taken and mixed, and the mixture was vortexed for 30 s and mixed well, resulting in a total reaction volume of 50 μL; the sample was duplicated. The mixture was placed on a 37° C. water bath thermostatic oscillator for incubation, and timing was started, with termination time points set at 0 min and 60 min.
(§8) (4) Sample group: 10 μL of the β-NADPH solution (5 mM) and 40 μL of the mixed solution in step (2) were taken and mixed, resulting in a total reaction volume of 50 μL; the mixture was vortexed for 30 s and mixed well; the sample was duplicated. The mixture was placed on a 37° C. water bath thermostatic oscillator for incubation, and timing was started, with termination time points set at 0 min, 5 min, 10 min, 20 min, 30 min, and 60 min.
(§9) (5) The mixture was vortexed for 5 min and then centrifuged at 4000 rpm for 10 min.
(§10) (6) 50 μL of the supernatant was taken and added to 150 μL of water, and the resulting mixture was vortexed and mixed well before LC/MS/MS analysis.
(§11) The half-life (t1/2) and clearance rate (CL) were calculated using the following first-order kinetic formula
(§12) Notes: k denotes the slope of the logarithm of the remaining amount of a compound vs. time, and Vd denotes apparent volume of distribution.

[2] = Stability in canine liver microsomes; assay type: in vitro ADME; conditions: canine liver microsomes 0.5 mg protein/mL, 1 μM test substance, β-NADPH 1 mM, 37° C.; for microsomal CLint at 1 μM / half-life at 1 μM: dog; for half-life at 1 μM: read-out: Canine t1/2
Experimental: as §1, §2, §3, §4, §5, §6, §7, §8, §9, §10, §11, §12

THP-1 cell NLRP3 = molecular target: T1, THP-1 cell NLRP3 (Homo sapiens, UniProt Q96P20); experiment: Inhibitory activity against cell NLRP3 inflammasomes in THP-1 cells (LPS + nigericin, ELISA of supernatant); assay type: cell-based; conditions: PMA-differentiated THP-1 cells, LPS 500 ng/mL 3 h, compound 1 h, nigericin 30 min; human IL-10 (so in the source) in supernatant by ELISA
T1 construct: endogenous in cells; host or cells: THP-1 cells, PMA-differentiated, stimulated with LPS and nigericin
Experimental: Experimental Example 1: Assay for Inhibitory Activity of Compounds Disclosed Herein Against Cell NLRP3 Inflammasomes
Test substances: The compounds of the present disclosure, prepared according to the methods described in the examples.
THP-1 is an immortalized human […] cell line.
Instrument: microplate reader (made by PE)
Assay Method: 1. THP-1 cells were cultured in 1640 complete medium (500 mL of 1640+56 mL of FBS+560 μL of 1000×P/S+2 μL of mercaptoethanol), and cells at passages 3-20 were used.
2. Culture plate coating: 100 μL of polylysine solution was added to a 96-well cell culture plate. After 30 min of incubation at 37° C., the solution was discarded, and the plate was washed with PBS twice for later use.
3. Induction of THP-1 differentiation: THP-1 cells were resuspended in an appropriate amount of complete medium containing 10 ng/mL PMA to form a cell suspension with a density of 5×10^5 cells/mL. The suspension was added to the 96-well plate at 100 μL/well, and the plate was incubated overnight in a 37° C. carbon dioxide cell incubator for 16 h.
4. Stimulation of THP-1: • a. Serum-free THP-1 culture medium containing LPS was added, with the final concentration being 500 ng/mL. The plate was incubated in a 37° C. carbon dioxide cell incubator for 3 h. • b. Mother liquors of the compounds to be tested with gradient concentrations were prepared with DMSO, added to the cells, and well mixed. Dilution was finally performed in a 1:1000 ratio. The plate was incubated in a 37° C. carbon dioxide cell incubator for 1 h. • c. Nigericin was added to each well, with the final concentration being […]. The plate was incubated in a carbon dioxide cell incubator at 37° C. for 30 min. • d. The medium in the wells was transferred to a new culture plate, and after 5 min of centrifugation at 3000 rpm, the supernatant was transferred to a new 96-well plate. • e. The content of human […] in the collected cell culture supernatant samples was determined with a commercial ELISA kit by following the instructions.

[3] = Pharmacokinetic study in mice; assay type: in vivo, female C57BL/6J mice; conditions: female, C57BL/6J, mouse, plasma; for clearance: read-out: Cl—obs iv (clearance rate) (converted); for Vd: read-out: Vss iv (distribution volume); for bioavailability: po 10 mg/kg vs iv 5 mg/kg, read-out: F% (absolute bioavailability); for Tmax: median, read-out: Tmax po (time to peak plasma concentration); for Cmax: read-out: Cmax po (peak concentration)
Experimental: (§13) The compounds were prepared into solutions using a mixed vehicle composed of 5% dimethyl sulfoxide, 20% (30% solutol), and 75% normal saline. The compound solutions were intragastrically administered to female C57BL/6J mice at a dose of 10 mg/kg, and the blood collection time points were: 15 min, 30 min, 1 h, 2 h, 4 h, 6 h, 8 h, and 24 h.
as §13, with “intravenously injected into” for “intragastrically administered to”, “5” for “10”, “were: 5 min,” for “were:”
The samples to be tested were taken out from a −80° C. freezer, naturally thawed at room temperature, and then vortexed for 5 min.
Plasma samples of 10 μL from different individuals were accurately pipetted into 1.5 mL centrifuge tubes.
900 μL of a 100 ng/mL internal standard working solution (a solution of tolbutamide in acetonitrile) was added, and the mixture was well mixed.
After 5 min of vortexing, centrifugation was performed at 12,000 rpm for 5 min.
50 μL of the supernatant was accurately pipetted into a 96-well plate to which water was added in advance at 150 μL/well.
After 5 min of vortexing, LC-MS/MS analysis was performed.
The results of the test substance concentrations were output by Analyst 1.6.3 of AB Sciex.
Parameters such as mean, standard deviation, and coefficient of variation (excluding those output directly by Analyst 1.6.3) were calculated using Microsoft Excel. PK parameters were calculated using WinNonlin Phenoix 8.2 software NCA (Tmax was a median).

[4] = iv 5 mg/kg, read-out: AUClast iv (0-24 h)
[5] = iv 5 mg/kg, read-out: tz1/2 iv (terminal half-life) (converted)
[6] = po 10 mg/kg, read-out: AUClast po (0-24 h)
[7] = po 10 mg/kg, read-out: tz1/2 po (terminal half-life) (converted)

T1 sequence (Q96P20 whole entry): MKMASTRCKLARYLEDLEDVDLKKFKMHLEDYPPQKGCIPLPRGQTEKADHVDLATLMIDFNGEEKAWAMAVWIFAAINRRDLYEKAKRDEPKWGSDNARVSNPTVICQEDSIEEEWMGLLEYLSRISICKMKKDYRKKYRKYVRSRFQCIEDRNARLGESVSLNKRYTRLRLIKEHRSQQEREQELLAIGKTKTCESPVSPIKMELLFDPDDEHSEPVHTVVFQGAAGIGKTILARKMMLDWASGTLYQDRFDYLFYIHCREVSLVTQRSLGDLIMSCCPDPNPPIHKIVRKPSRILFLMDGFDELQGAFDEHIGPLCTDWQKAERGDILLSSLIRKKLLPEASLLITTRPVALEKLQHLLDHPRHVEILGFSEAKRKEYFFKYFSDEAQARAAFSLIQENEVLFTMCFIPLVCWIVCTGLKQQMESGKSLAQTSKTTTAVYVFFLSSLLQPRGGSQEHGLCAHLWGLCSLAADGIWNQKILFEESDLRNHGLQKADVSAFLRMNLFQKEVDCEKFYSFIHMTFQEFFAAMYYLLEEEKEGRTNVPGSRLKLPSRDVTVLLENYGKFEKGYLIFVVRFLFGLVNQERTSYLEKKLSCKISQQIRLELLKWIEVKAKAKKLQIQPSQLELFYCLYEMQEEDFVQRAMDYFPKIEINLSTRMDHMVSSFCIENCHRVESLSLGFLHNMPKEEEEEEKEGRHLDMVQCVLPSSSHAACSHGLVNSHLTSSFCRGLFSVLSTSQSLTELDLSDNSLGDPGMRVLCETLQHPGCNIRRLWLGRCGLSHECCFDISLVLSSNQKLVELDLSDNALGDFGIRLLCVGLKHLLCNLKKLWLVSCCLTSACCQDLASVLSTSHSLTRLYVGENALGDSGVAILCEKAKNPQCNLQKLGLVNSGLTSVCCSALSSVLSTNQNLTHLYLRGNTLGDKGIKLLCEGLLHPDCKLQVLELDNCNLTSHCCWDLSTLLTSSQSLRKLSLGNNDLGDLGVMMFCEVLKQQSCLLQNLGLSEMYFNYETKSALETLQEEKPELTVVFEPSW

Row | SMILES | microsomal CLint at 1 μM [1] | half-life at 1 μM [1] | Canine t1/2 [2] | IC50 (THP-1 cell NLRP3) | AUC(0-t) [3, 4] | clearance ([3]; iv 5 mg/kg) | Vd ([3]; iv 5 mg/kg) | half-life [3, 5] | bioavailability [3] | Tmax ([3]; po 10 mg/kg) | AUC(0-t) [3, 6] | Cmax ([3]; po 10 mg/kg) | half-life [3, 7] | microsomal CLint at 1 μM [2] | half-life at 1 μM [2] | Rat t1/2 [1]
1 | CC#Cc1ccc(-c2nnc(N[C@@H]3CCCN(C)C3)c(=O)n2C)c(O)c1 [Compound 27, (R)-3-(2-hydroxy-4-(prop-1-yn-1-yl)phenyl)-4-methyl-6-((1-methylpiperidin-3-yl)amino)-1,2,4-triazin-5(4H)-one] | 6.2 µL/min/mg | 3.73 h | →∞ | 5200 pM | 6830 ng·h/mL | 11.8 mL/min/kg | 2.39 L/kg | 9.55 h | 77.7% | 0.25 h | 10900 ng·h/mL | 5520 ng/mL | 3.99 h | – | – | –
2 | [2H]C([2H])([2H])N1CCC[C@@H](Nc2cc(C)c(-c3ccc(C#C)cc3O)nn2)C1 [Compound 84, (R)-5-ethynyl-2-(4-methyl-6-((1-(methyl-d3)piperidin-3-yl)amino)pyridazin-3-yl)phenol] | 4 µL/min/mg | 5.78 h | – | 200 pM | 5590 ng·h/mL | 14.8 mL/min/kg | 3.02 L/kg | 3.81 h | 92.7% | 0.5 h | 10400 ng·h/mL | 1910 ng/mL | 3.1 h | 4 µL/min/mg | 5.78 h | –
3 | [2H]C([2H])([2H])N1CCC[C@@H](Nc2cc(C3CC3)c(-c3ccc(C#C)cc3O)nn2)C1 [Compound 85, (R)-2-(4-cyclopropyl-6-((1-(methyl-d3)piperidin-3-yl)amino)pyridazin-3-yl)-5-ethynylphenol] | 4.6 µL/min/mg | 5.02 h | – | 600 pM | 15100 ng·h/mL | 5.32 mL/min/kg | 1.85 L/kg | 5.55 h | 94.4% | 1 h | 29100 ng·h/mL | 3540 ng/mL | 4.26 h | 5.2 µL/min/mg | 4.45 h | –
4 | C#Cc1ccc(-c2nnc(N[C@@H]3CCCN(CCO)C3)nc2C2CC2)c(O)c1 [Compound 100, (R)-2-(5-cyclopropyl-3-((1-(2-hydroxyethyl)piperidin-3-yl)amino)-1,2,4-triazin-6-yl)-5-ethynylphenol] | 8.4 µL/min/mg | 2.75 h | – | 2400 pM | 4460 ng·h/mL | 18 mL/min/kg | 2.41 L/kg | 1.65 h | 68.4% | 0.25 h | 6280 ng·h/mL | 1720 ng/mL | 3.63 h | 2.8 µL/min/mg | 8.25 h | –
5 | C#Cc1ccc(-c2nnc(N[C@@H]3CCCNC3)cc2C2CC2)c(O)c1 [Compound 149, (R)-2-(4-cyclopropyl-6-(piperidin-3-ylamino)pyridazin-3-yl)-5-ethynylphenol] | – | – | →∞ | 500 pM | – | – | – | – | – | – | – | – | – | – | – | →∞

— patent US20260167637A1, “NLRP3 INFLAMMASOME INHIBITOR AND USE THEREOF” (TransThera Sciences (Nanjing), Inc., priority 2022, published 2026)
